Measurements from patent US7229782B1, “Antibodies specific to multiple beta blockers and methods for their use” (LabOne, Inc., priority 2004, dated 2007).

Test system: antibody of the present invention
Test: Interference from other drugs, homogeneous enzyme immunoassay
Format: binding, rabbit
Conditions: chemical at 10.0 μg/ml urine; cutoff 5.0 μg Atenolol per ml of urine; tested three times
Protocol: Samples were checked for turbidity and growth. A homogeneous enzyme immunoassay was carried out on an Olympus AU-5200 analyzer using the following assay parameters:
Reagent 1 is comprised of a titer of 1–500 dilution of an antibody of the present invention, 11.25 mM NAD+, 11.25 mM G6P, 0.1% w/v sodium azide and 100 mM Tris.
Reagent 2 is comprised of a titer of 1–2000 dilution of a G6PDH-beta blocker conjugate, 0.1% w/v sodium azide, and 50 mM Tris.
A homogenous calibrator containing sodium azide was used to calibrate the analyzer prior to each run.
The analytical cutoff for the test was set at 5.0 μg Atenolol per ml of urine. The result was scored as a positive if the signal strength was greater than that produced by 5.0 μg Atenolol per ml of urine.
Interference from other drugs was tested using fifty-five (55) frequently used chemicals and medicines, at concentrations of 10.0 μg/ml urine.
The samples were tested three times, following the procedures used in Example 3.

Row | Compound | Beta-Blocker Pos./Neg.
1 | CCC(=O)C(CC(C)N(C)C)(c1ccccc1)c1ccccc1 (racemic) [Methadone (DL-)] | Neg. (scored as a positive if the signal strength was greater than that produced by 5.0 μg Atenolol per ml of urine)
2 | CN1C(=O)CC[C@H]1c1cccnc1 [(−)-Cotinine] | Neg. (scored as a positive if the signal strength was greater than that produced by 5.0 μg Atenolol per ml of urine)
3 | CC(=O)Oc1ccccc1C(=O)O [Acetylsalicylic Acid] | Neg. (scored as a positive if the signal strength was greater than that produced by 5.0 μg Atenolol per ml of urine)
4 | Cc1nnc2n1-c1ccc(Cl)cc1C(c1ccccc1)=NC2 [Alprazolam] | Neg. (scored as a positive if the signal strength was greater than that produced by 5.0 μg Atenolol per ml of urine)
5 | C[C@H](N)Cc1ccccc1 [Amphetamine (D-)] | Neg. (scored as a positive if the signal strength was greater than that produced by 5.0 μg Atenolol per ml of urine)
6 | CC1(C)S[C@@H]2[C@H](NC(=O)[C@H](N)c3ccccc3)C(=O)N2[C@H]1C(=O)O [Ampicillin] | Neg. (scored as a positive if the signal strength was greater than that produced by 5.0 μg Atenolol per ml of urine)
7 | CN1[C@H]2CC[C@@H]1[C@@H](C(=O)O)[C@@H](OC(=O)c1ccccc1)C2 [Benzoylecgonine] | Neg. (scored as a positive if the signal strength was greater than that produced by 5.0 μg Atenolol per ml of urine)
8 | C=CCC1(CC(C)C)C(=O)NC(=O)NC1=O [Butalbital] | Neg. (scored as a positive if the signal strength was greater than that produced by 5.0 μg Atenolol per ml of urine)
9 | Cn1c(=O)c2c(ncn2C)n(C)c1=O [Caffeine] | Neg. (scored as a positive if the signal strength was greater than that produced by 5.0 μg Atenolol per ml of urine)
10 | CN(C)CCCN1c2ccccc2Sc2ccc(Cl)cc21 [Chlorpromazine] | Neg. (scored as a positive if the signal strength was greater than that produced by 5.0 μg Atenolol per ml of urine)
11 | O=C1CN=C(c2ccccc2Cl)c2cc([N+](=O)[O-])ccc2N1 [Clonazepam] | Neg. (scored as a positive if the signal strength was greater than that produced by 5.0 μg Atenolol per ml of urine)
12 | O=C(O)C1N=C(c2ccccc2)c2cc(Cl)ccc2NC1=O (stereo not drawn) [Clorazepate] | Neg. (scored as a positive if the signal strength was greater than that produced by 5.0 μg Atenolol per ml of urine)
13 | CCOC(=O)[C@@H]1C2CCC(C[C@@H]1OC(=O)c1ccccc1)N2C (stereo partly drawn) [Cocainethylene] | Neg. (scored as a positive if the signal strength was greater than that produced by 5.0 μg Atenolol per ml of urine)
14 | COc1ccc2c3c1O[C@H]1[C@@H](O)C=C[C@H]4[C@@H](C2)N(C)CC[C@@]341 [Codeine] | Neg. (scored as a positive if the signal strength was greater than that produced by 5.0 μg Atenolol per ml of urine)
15 | COc1ccc2c(c1)[C@]13CCCC[C@@H]1[C@H](C2)N(C)CC3 [Dextromethorphan] | Neg. (scored as a positive if the signal strength was greater than that produced by 5.0 μg Atenolol per ml of urine)
16 | COC(=O)[C@@H]1[C@H]2CC[C@@H](C[C@@H]1O)N2C.Cl [Ecgonine Methyl Ester Hydrochloride] | Neg. (scored as a positive if the signal strength was greater than that produced by 5.0 μg Atenolol per ml of urine)
17 | CN[C@@H](C)[C@H](O)c1ccccc1 [Ephedrine (L-)] | Neg. (scored as a positive if the signal strength was greater than that produced by 5.0 μg Atenolol per ml of urine)
18 | CN[C@@H](C)[C@H](O)c1ccccc1.Cl [Ephedrine Hydrochloride (1R,2S)-(−)] | Neg. (scored as a positive if the signal strength was greater than that produced by 5.0 μg Atenolol per ml of urine)
19 | CC(C(=O)O)c1cccc(Oc2ccccc2)c1 (stereo not drawn) [Fenoprofen] | Neg. (scored as a positive if the signal strength was greater than that produced by 5.0 μg Atenolol per ml of urine)
20 | Cc1ccc(C)c(OCCCC(C)(C)C(=O)O)c1 [Gemfibrozil] | Neg. (scored as a positive if the signal strength was greater than that produced by 5.0 μg Atenolol per ml of urine)
21 | O=C(O)c1cc(O)ccc1O [Gentisic Acid] | Neg. (scored as a positive if the signal strength was greater than that produced by 5.0 μg Atenolol per ml of urine)
22 | COc1ccc2c3c1O[C@H]1C(=O)CC[C@H]4[C@@H](C2)N(C)CC[C@]314 [Hydrocodone] | Neg. (scored as a positive if the signal strength was greater than that produced by 5.0 μg Atenolol per ml of urine)
23 | CC(C)Cc1ccc(C(C)C(=O)O)cc1 (stereo not drawn) [Ibuprofen] | Neg. (scored as a positive if the signal strength was greater than that produced by 5.0 μg Atenolol per ml of urine)

Row | Compound | Beta-Blocker Pos./Neg.
24 | CN(C)CCCN1c2ccccc2CCc2ccccc21 [Imipramine] | Neg. (scored as a positive if the signal strength was greater than that produced by 5.0 μg Atenolol per ml of urine)
25 | CCN(CC)CC(=O)Nc1c(C)cccc1C [Lidocaine] | Neg. (scored as a positive if the signal strength was greater than that produced by 5.0 μg Atenolol per ml of urine)
26 | CN[C@@H](C)Cc1ccccc1 [Methamphetamine (D-)] | Neg. (scored as a positive if the signal strength was greater than that produced by 5.0 μg Atenolol per ml of urine)
27 | C=CCN1CC[C@]23c4c5ccc(O)c4O[C@H]2[C@@H](O)C=C[C@H]3[C@H]1C5 [Nalorphine] | Neg. (scored as a positive if the signal strength was greater than that produced by 5.0 μg Atenolol per ml of urine)
28 | COc1ccc2cc([C@H](C)C(=O)O)ccc2c1 [Naproxen] | Neg. (scored as a positive if the signal strength was greater than that produced by 5.0 μg Atenolol per ml of urine)
29 | NC(=O)c1cccnc1 [Niacinamide] | Neg. (scored as a positive if the signal strength was greater than that produced by 5.0 μg Atenolol per ml of urine)
30 | CCCC(C)C1(CC)C(=O)NC(=O)NC1=O (stereo not drawn) [Pentobarbital] | Neg. (scored as a positive if the signal strength was greater than that produced by 5.0 μg Atenolol per ml of urine)
31 | c1ccc(C2(N3CCCCC3)CCCCC2)cc1 [Phencyclidine] | Neg. (scored as a positive if the signal strength was greater than that produced by 5.0 μg Atenolol per ml of urine)
32 | NCCc1ccccc1 [Phenethylamine (beta-)] | Neg. (scored as a positive if the signal strength was greater than that produced by 5.0 μg Atenolol per ml of urine)
33 | CNC[C@H](O)c1cccc(O)c1 [Phenylephrine] | Neg. (scored as a positive if the signal strength was greater than that produced by 5.0 μg Atenolol per ml of urine)
34 | CC(N)C(O)c1ccccc1 (stereo not drawn) [Phenylpropanolamine] | Neg. (scored as a positive if the signal strength was greater than that produced by 5.0 μg Atenolol per ml of urine)
35 | CCN(CC)CCNC(=O)c1ccc(N)cc1 [Procainamide] | Neg. (scored as a positive if the signal strength was greater than that produced by 5.0 μg Atenolol per ml of urine)
36 | CCN(CC)CCOC(=O)c1ccc(N)cc1 [Procaine] | Neg. (scored as a positive if the signal strength was greater than that produced by 5.0 μg Atenolol per ml of urine)
37 | CN[C@@H](C)[C@@H](O)c1ccccc1 [Pseudoephedrine] | Neg. (scored as a positive if the signal strength was greater than that produced by 5.0 μg Atenolol per ml of urine)
38 | C=C[C@H]1C[N@@]2CC[C@H]1C[C@@H]2[C@@H](O)c1ccnc2ccc(OC)cc12 [Quinidine] | Neg. (scored as a positive if the signal strength was greater than that produced by 5.0 μg Atenolol per ml of urine)
39 | CN1C(=O)C(O)N=C(c2ccccc2)c2cc(Cl)ccc21 (stereo not drawn) [Temazepam] | Neg. (scored as a positive if the signal strength was greater than that produced by 5.0 μg Atenolol per ml of urine)
40 | Cn1c(=O)c2[nH]cnc2n(C)c1=O [Theophylline] | Neg. (scored as a positive if the signal strength was greater than that produced by 5.0 μg Atenolol per ml of urine)
41 | Cc1cc(CC(=O)O)n(C)c1C(=O)c1ccc(Cl)cc1 [Zomepirac] | Neg. (scored as a positive if the signal strength was greater than that produced by 5.0 μg Atenolol per ml of urine)
42 | (−)-11-NOR-9-Carboxy-Delta9-THC | Neg. (scored as a positive if the signal strength was greater than that produced by 5.0 μg Atenolol per ml of urine)
43 | Ecgonine Hydrochloride | Neg. (scored as a positive if the signal strength was greater than that produced by 5.0 μg Atenolol per ml of urine)
44 | PCP | Neg. (scored as a positive if the signal strength was greater than that produced by 5.0 μg Atenolol per ml of urine)
45 | Penicillin | Neg. (scored as a positive if the signal strength was greater than that produced by 5.0 μg Atenolol per ml of urine)
